Measurements: the supplement of paper PMC10307832

Legend:
Assay in all cases: relative viability (nuclei count vs DMSO), 5 days (fraction); higher = more cells survive
AZD8055 + AZD7762 = compound: COc1ccc(-c2ccc3c(N4CCOC[C@@H]4C)nc(N4CCOC[C@@H]4C)nc3n2)cc1CO [AZD8055] + NC(=O)Nc1cc(-c2cccc(F)c2)sc1C(=O)N[C@H]1CCCNC1 [AZD7762] (partner 0.2 µM)
Outline: (§1)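 Cells from lung cancer lines were seeded into 1536-well plates and, one day later, dosed by pin tool. Treatments were either a single drug or a fixed dose of an anchor drug with five library-drug doses (not always all listed) in √10 steps. After 5 days, nuclei were stained in a one-step fixation (final 0.05% Triton X-100, 1% formaldehyde, 1 ug/ml Hoechst) and counted on 4× images, and relative viability is the treated-to-vehicle nuclei ratio, as the median of duplicate plates.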

AZD8055 + Pictilisib = compound: COc1ccc(-c2ccc3c(N4CCOC[C@@H]4C)nc(N4CCOC[C@@H]4C)nc3n2)cc1CO [AZD8055] + CS(=O)(=O)N1CCN(Cc2cc3nc(-c4cccc5[nH]ncc45)nc(N4CCOCC4)c3s2)CC1 [Pictilisib] (partner 1 µM)
Outline: as §1

AZD8055 + Phenformin = compound: COc1ccc(-c2ccc3c(N4CCOC[C@@H]4C)nc(N4CCOC[C@@H]4C)nc3n2)cc1CO [AZD8055] + N=C(N)NC(=N)NCCc1ccccc1 [Phenformin] (partner 250 µM)
Outline: as §1

AZD8055 + Alpelisib = compound: COc1ccc(-c2ccc3c(N4CCOC[C@@H]4C)nc(N4CCOC[C@@H]4C)nc3n2)cc1CO [AZD8055] + Cc1nc(NC(=O)N2CCC[C@H]2C(N)=O)sc1-c1ccnc(C(C)(C)C(F)(F)F)c1 [Alpelisib] (partner 2 µM)
Outline: as §1

Cell Line	relative viability (AZD8055 + AZD7762; first compound 0.01 µM)	relative viability (AZD8055 + AZD7762; first compound 0.03162 µM)	relative viability (AZD8055 + AZD7762; first compound 0.1 µM)	relative viability (AZD8055 + AZD7762; first compound 0.3162 µM)	relative viability (AZD8055 + AZD7762; first compound 1 µM)	relative viability (AZD8055 + Pictilisib; first compound 0.01 µM)	relative viability (AZD8055 + Pictilisib; first compound 0.03162 µM)	relative viability (AZD8055 + Pictilisib; first compound 0.1 µM)	relative viability (AZD8055 + Pictilisib; first compound 0.3162 µM)	relative viability (AZD8055 + Pictilisib; first compound 1 µM)	relative viability (AZD8055 + Phenformin; first compound 0.01 µM)	relative viability (AZD8055 + Phenformin; first compound 0.03162 µM)	relative viability (AZD8055 + Phenformin; first compound 0.1 µM)	relative viability (AZD8055 + Phenformin; first compound 0.3162 µM)	relative viability (AZD8055 + Phenformin; first compound 1 µM)	relative viability (AZD8055 + Alpelisib; first compound 0.01 µM)	relative viability (AZD8055 + Alpelisib; first compound 0.03162 µM)	relative viability (AZD8055 + Alpelisib; first compound 0.1 µM)	relative viability (AZD8055 + Alpelisib; first compound 0.3162 µM)	relative viability (AZD8055 + Alpelisib; first compound 1 µM)
201T	0.621	0.413	0.5	0.362	0.374	0.623	0.606	0.521	0.495	0.472	0.473	0.438	0.422	0.318	0.314	0.987	0.911	0.775	0.611	0.569
A-427	0.762	0.597	0.529	0.5	0.427	0.747	0.684	0.677	0.501	0.507	0.459	0.381	0.321	0.25	0.291	1.22	0.999	0.939	0.674	0.519
ABC-1	0.879	0.766	1.02	0.406	0.495	0.78	0.659	0.556	0.438	0.334	0.198	0.289	0.226	0.197	0.22	0.897	0.847	0.65	0.404	0.515
BEN	0.684	0.408	0.41	0.403	0.357	0.541	0.391	0.34	0.316	0.254	0.293	0.26	0.292	0.242	0.228	1.06	0.593	0.391	0.341	0.338
CAL-12T	0.695	0.8	0.733	0.421	0.339	0.393	0.341	0.349	0.322	0.213	0.567	0.626	0.479	0.23	0.2	1.15	1.1	0.91	0.337	0.17
COR-L23						0.95	0.478	0.35	0.16	0.17	0.485	0.373	0.341	0.213	0.157	0.837	0.551	0.395	0.155	0.154
COR-L 105						0.488	0.31	0.388	0.326	0.35	0.506	0.529	0.35	0.278	0.275	0.975	0.737	0.798	0.271	0.315
Calu-6						0.826	0.737	0.531	0.4	0.366						0.911	0.69	0.524	0.399	0.339
ChaGo-K-1	0.957	0.832	0.828	0.703	0.645	0.817	0.848	0.801	0.49	0.346	0.508	0.467	0.494	0.407	0.374					
EBC-1						0.303	0.266	0.206	0.197	0.19						0.827	0.421	0.373	0.265	0.259
EKVX	0.783	0.594	0.605	0.375	0.29	0.485	0.44	0.3	0.245	0.169	0.225	0.247	0.229	0.209	0.188	0.94	0.834	0.587	0.34	0.401
EMC-BAC-2	1.03	0.912	0.956	0.517	0.377	0.511	0.494	0.475	0.279	0.286	0.5	0.42	0.36	0.283	0.258	0.706	0.663	0.469	0.281	0.297
EPLC-272H	0.178	0.0952	0.243	0.109	0.127	0.339	0.307	0.23	0.261	0.212	0.326	0.214	0.216	0.198	0.212	0.927	0.754	0.546	0.445	0.404
H3255	1.03	0.951	0.803	0.471	0.413	0.518	0.45	0.249	0.277	0.272	0.349	0.397	0.332	0.279	0.305	0.683	0.657	0.499	0.275	0.322
HARA		0.384	0.406	0.487	0.306	0.372	0.257	0.198	0.24	0.17	0.548	0.478	0.5	0.307	0.215	0.786	0.744	0.376	0.222	0.252
HCC-15	1.26	1.18	1.21	0.885	0.559	0.806	0.685	0.631	0.369	0.338	0.547	0.459	0.425	0.286	0.232	0.86	0.769	0.639	0.366	0.282
HCC-44	1.03	1.01	0.972	0.992	0.925	0.447	0.396	0.376	0.267	0.347	0.216	0.197	0.132	0.158	0.128	0.573	0.507	0.417	0.271	0.295

Cell Line	relative viability (AZD8055 + AZD7762; first compound 0.01 µM)	relative viability (AZD8055 + AZD7762; first compound 0.03162 µM)	relative viability (AZD8055 + AZD7762; first compound 0.1 µM)	relative viability (AZD8055 + AZD7762; first compound 0.3162 µM)	relative viability (AZD8055 + AZD7762; first compound 1 µM)	relative viability (AZD8055 + Pictilisib; first compound 0.01 µM)	relative viability (AZD8055 + Pictilisib; first compound 0.03162 µM)	relative viability (AZD8055 + Pictilisib; first compound 0.1 µM)	relative viability (AZD8055 + Pictilisib; first compound 0.3162 µM)	relative viability (AZD8055 + Pictilisib; first compound 1 µM)	relative viability (AZD8055 + Phenformin; first compound 0.01 µM)	relative viability (AZD8055 + Phenformin; first compound 0.03162 µM)	relative viability (AZD8055 + Phenformin; first compound 0.1 µM)	relative viability (AZD8055 + Phenformin; first compound 0.3162 µM)	relative viability (AZD8055 + Phenformin; first compound 1 µM)	relative viability (AZD8055 + Alpelisib; first compound 0.01 µM)	relative viability (AZD8055 + Alpelisib; first compound 0.03162 µM)	relative viability (AZD8055 + Alpelisib; first compound 0.1 µM)	relative viability (AZD8055 + Alpelisib; first compound 0.3162 µM)	relative viability (AZD8055 + Alpelisib; first compound 1 µM)
HCC-78	0.658	0.541	0.47	0.347	0.269	0.216	0.218	0.164	0.178	0.164	0.684	0.64	0.437	0.386	0.35	0.303	0.204	0.181	0.217	0.221
IA-LM						0.221	0.217	0.118	0.0814	0.0826						0.749	0.485	0.212	0.0977	0.0895
NCI-H520						0.301	0.19	0.202	0.163	0.159	0.467	0.219	0.211	0.158	0.156	0.912	0.659	0.4	0.187	0.18
NCI-H661						0.394	0.424	0.322	0.302	0.27	0.245	0.262	0.287	0.248	0.261	0.801	0.411	0.399	0.397	0.275
NCI-H1299						0.635	0.572	0.363	0.24	0.233						1.17	1.04	1.06	0.628	0.468
NCI-H1563						0.651	0.614	0.65	0.61	0.638	0.632	0.66	0.617	0.656	0.641	0.82	0.61	0.603	0.51	0.673
NCI-H1648	0.708	0.804	0.639	0.413	0.261															
NCI-H1650						0.551	0.575	0.479	0.393	0.36	0.534	0.518	0.383	0.288	0.266					
NCI-H1703	0.127	0.125	0.115	0.115	0.095	0.24	0.263	0.257	0.232	0.255						0.328	0.297	0.237	0.219	0.318
NCI-H2009						0.762	0.441	0.561	0.343	0.333	0.508	0.455	0.486	0.294	0.228	1.14	1.03	0.931	0.583	0.401
NCI-H2023						0.215	0.195	0.137	0.12	0.116	0.463	0.326	0.293	0.138	0.13	0.439	0.431	0.311	0.141	0.141
NCI-H2228						0.244	0.273	0.159	0.263	0.287	0.307	0.205	0.188	0.133	0.212	0.621	0.297	0.222	0.19	0.272
NCI-H2342	0.422	0.459	0.308	0.376	0.43						0.609	0.495	0.429	0.394	0.437					
SK-LU-1						0.525	0.395	0.327	0.28	0.298	0.526	0.436	0.288	0.247	0.226	1.03	0.643	0.384	0.687	0.342
SK-MES-1						0.311	0.355	0.299	0.181	0.236	0.658	0.645	0.608	0.311	0.216	0.856	0.64	0.542	0.303	0.269
SW 1573						0.504	0.438	0.38	0.205	0.181	0.324	0.218	0.193	0.163	0.14	0.707	0.51	0.55	0.301	0.211
UMC-11						0.905	0.604	0.503	0.272	0.254	0.353	0.311	0.311	0.264	0.213	1.06	0.737	0.549	0.232	0.22
